Results on eleven compounds are retold here after paper PMC6264142, “Microwave Assisted Organic Synthesis (MAOS) of Small Molecules as Potential HIV-1 Integrase Inhibitors” (Molecules, 2011).

SMILES strings stand for the structures.

The target of data set [1] is T1, HIV-1 integrase (Human immunodeficiency virus type 1 group M subtype B, UniProt P04585).
T1 construct: To determine the susceptibility of the HIV-1 integrase enzyme towards different compounds
In words: Overall integrase assay (ELISA). It counts as biochemical. Particulars: concentration required to inhibit the in vitro overall integrase activity by 50%; read-out: IN enzymatic activity (IC50) Overall. From the text: (§1) Overall integrase assay using an enzyme-linked immunosorbent assay (ELISA): To determine the susceptibility of the HIV-1 integrase enzyme towards different compounds we used enzyme-linked immunosorbent assays. These assays use an oligonucleotide substrate of which one oligonucleotide (5’-[…]-3’) is labeled with biotin at the 3’ end and the other oligonucleotide is labeled with digoxigenin at the 5’ end. For the overall integration assay the second 5’-digoxigenin labeled oligonucleotide is (5’-[…] […]-3’). For the Strand Transfer assay the second oligonucleotide lacks GT at the 3’ end. The integrase enzyme was diluted in 750 mM NaCl, 10 mM Tris pH 7.6, 10% glycerol, and 1 mM β-mercaptoethanol. To perform the reaction, diluted integrase (4 µL, corresponding to a concentration of 1.6 µM) and annealed oligonucleotides (4 µL, 7 nM) were added in a final reaction volume of 40 µL containing 10 mM MgCl2, 5 mM DTT, 20 mM HEPES pH 7.5, 5% PEG, and 15% DMSO. The reaction was carried out for 1 h at 37 °C. Reaction products were denatured with 30 mM NaOH and detected by an immunosorbent assay on avidin-coated plates.
In general terms: In an ELISA, binding on a coated surface is turned into a signal by an enzyme label.

In data set [2] the target is T2, HIV-1 integrase (strand transfer step) (Human immunodeficiency virus type 1 group M subtype B, UniProt P04585).
T2 construct: To determine the susceptibility of the HIV-1 integrase enzyme towards different compounds
The experiment in a line: Strand transfer assay (ELISA). It counts as biochemical. The conditions noted are these: concentration required to inhibit the in vitro strand transfer step by 50%; read-out: IN enzymatic activity (IC50) ST.
Source text: as §1

In data set [3] the test system is HIV(IIIB) strain in MT-4 cells. In words: MT-4/MTT assay, HIV-induced cytopathic effect. The data set is classed as cell-based, HIV-1. The conditions noted are these: for EC50: Human immunodeficiency virus 1, IIIB, MT4, 50% protection against CPE of HIV, read-out: EC50 against HIV-1 replication in cell cultures. The procedure:
In vitro anti-HIV and drug susceptibility assays: The inhibitory effect of antiviral drugs on the HIV-induced cytopathic effect (CPE) in human lymphocyte MT-4 cell culture was determined by the MT-4/MTT-assay. This assay is based on the reduction of the yellow 3-(4,5-dimethylthiazol-2-yl)-2,5-diphenyltetrazolium bromide (MTT) by mitochondrial dehydrogenase of metabolically active cells to a blue formazan derivative, which can be measured spectrophotometrically. The 50% cell culture infective dose (CCID50) of the HIV(IIIB) strain was determined by titration of the virus stock using MT-4 cells. For the drug-susceptibility assays, MT-4 cells were infected with 100–300 CCID50 of the virus stock in the presence of fivefold serial dilutions of the antiviral drugs. The concentration of the various compounds that achieved 50% protection against the CPE of the different HIV strains, which is defined as the EC50, was determined. In parallel, the 50% cytotoxic concentration (CC50) was determined.
A general note: Tetrazolium dyes change colour on reduction, which living cells bring about.

For data set [4], the system named is HIV-IN. More on the design: method as in PMID 19385721, PMID 20112170. The conditions noted are these: HIV-IN inhibitor; cited from earlier work.

`COc1cccc2c1c(C(=O)/C=C(\O)C(=O)O)cn2Cc1ccc(F)cc1` [CHI-1043, reference compound]: the figures for the IC50 in data set [1] and in data set [2] were 0.08 ± 0.003 µM and 0.14 ± 0.11 µM, respectively.

In the case of `COc1cccc2c1c(C(=O)C=C(O)C(=O)O)cn2Cc1ccccc1C` [Compound 7a, 4-[1-(2-Methylbenzyl)-4-methoxy-1H-indol-3-yl]-2-hydroxy-4-oxobut-2-enoic acid], the melting point (usually the temperature, or range, at which the solid turns liquid) fell in the range of 164 to 166 °C. Besides, the IC50 (in general, the point on the concentration scale where inhibition reaches its midpoint) in data set [1] is 1.74 ± 1.32 µM. In addition, the IC50 in data set [2] was 1.07 ± 0.76 µM. Also, in data set [3], the EC50 (in general, the midpoint of the concentration-response curve) worked out at 1.74 µM. Moreover, the “selectivity index (SI)” value in data set [3] (ratio of EC50 and CC50 values) was 43.

Compound `COc1cccc2c1c(C(=O)C=C(O)C(=O)O)cn2Cc1cccc(C)c1` [Compound 7b, 4-[1-(3-Methylbenzyl)-4-methoxy-1H-indol-3-yl]-2-hydroxy-4-oxobut-2-enoic acid] displayed a melting point of 150 to 152 °C. Further, the IC50 in data set [1] was 0.42 ± 0.29 µM. In data set [2], the half-maximal inhibitory concentration (IC50) is 1.36 ± 0.64 µM. In addition, the EC50 in data set [3] worked out at 2.14 µM.

Compound `COc1cccc2c1c(C(=O)C=C(O)C(=O)O)cn2Cc1ccc(C)cc1` [Compound 7c, 4-[1-(4-Methylbenzyl)-4-methoxy-1H-indol-3-yl]-2-hydroxy-4-oxobut-2-enoic acid] gave a melting point of 141 to 143 °C. Further, the IC50 in data set [1] is 5.76 ± 1.82 µM. The IC50 in data set [2] is 8.84 ± 5.6 µM.

For `COc1cccc2c1c(C(=O)C=C(O)C(=O)O)cn2Cc1cccc(C)c1C` [Compound 7d, 4-[1-(2,3-Dimethylbenzyl)-4-methoxy-1H-indol-3-yl]-2-hydroxy-4-oxobut-2-enoic acid], the melting point fell in the range of 160 to 162 °C. The half-maximal inhibitory concentration (IC50) in data set [1] worked out at 2.61 ± 1.17 µM. The IC50 in data set [2] came out at 6.79 ± 0.64 µM. The EC50 in data set [3] stood at 1.74 µM.

Turning to `COc1cccc2c1c(C(=O)C=C(O)C(=O)O)cn2Cc1ccc(C)cc1C` [Compound 7e, 4-[1-(2,4-Dimethylbenzyl)-4-methoxy-1H-indol-3-yl]-2-hydroxy-4-oxobut-2-enoic acid], the melting point fell in the range of 143 to 145 °C. Further, the IC50 in data set [1] amounted to 51.8 ± 33.8 µM. Moreover, the IC50 in data set [2] is 55.9 ± 43.8 µM.

In turn, `COc1cccc2c1c(C(=O)C=C(O)C(=O)O)cn2Cc1cc(C)ccc1C` [Compound 7f, 4-[1-(2,5-Dimethylbenzyl)-4-methoxy-1H-indol-3-yl]-2-hydroxy-4-oxobut-2-enoic acid] showed a melting point of 163 to 165 °C. Also, the IC50 in data set [1] turned out to be 3.83 ± 2.21 µM. Moreover, in data set [2], the IC50 worked out at 9.47 ± 1.06 µM.

`COc1cccc2c1c(C(=O)C=C(O)C(=O)O)cn2Cc1c(C)cccc1C` [Compound 7g, 4-[1-(2,6-Dimethylbenzyl)-4-methoxy-1H-indol-3-yl]-2-hydroxy-4-oxobut-2-enoic acid] displayed a melting point of 173 to 175 °C. For the same compound, the IC50 in data set [1] turned out to be 7.34 ± 1.32 µM. The IC50 in data set [2] was 23.5 ± 17.8 µM.

Compound `COc1cccc2c1c(C(=O)C=C(O)C(=O)O)cn2Cc1cc(C)cc(C)c1` [Compound 7h, 4-[1-(3,5-Dimethylbenzyl)-4-methoxy-1H-indol-3-yl]-2-hydroxy-4-oxobut-2-enoic acid] came in with a melting point of 120 to 122 °C. Besides, the IC50 in data set [1] is 7.69 ± 5.59 µM. Further, the IC50 in data set [2] is 5.49 ± 2.67 µM.

On to `COc1cccc2c1c(C(=O)C=C(O)C(=O)O)cn2Cc1cc(C)c(F)c(C)c1` [Compound 7i, 4-[1-(4-Fluoro-3,5-dimethylbenzyl)-4-methoxy-1H-indol-3-yl]-2-hydroxy-4-oxobut-2-enoic acid], for which the melting point is 153 to 155 °C. Moreover, the IC50 in data set [1] worked out at 2.17 ± 1.65 µM. The IC50 in data set [2] was determined as 5.24 ± 1.34 µM.

For `Cc1nnc(C(=O)NC(C)(C)c2nc(C(=O)NCc3ccc(F)cc3)c(O)c(=O)n2C)o1` [raltegravir], the IC50 in data set [4] was 0.0068 µM.
